According to patent publication US20200048668A1, “BIOLOGICAL PRODUCTION OF ß-LACTONES” (Regents of the University of Minnesota, priority 2018, published 2020):

Legend:
[1] = target: Xc OleB (Xanthomonas campestris pv. campestris, UniProt Q8PDW8); assay: OleB reactions with haloalkanes (GC-FID/MS); type: biochemical; conditions: monitored by GC-FID/MS
Description: The following haloalkane substrates were dissolved in ethanol to a concentration of 5 mM for testing with Xc OleB: 1-iodobutane, 1,3-diiodobutane,1-chlorobutane, 1-bramopentane, 1-chlorohexane, 1-bromooctane, 1-iodoundecane, and 7-(bromomethyl)pentadecane. Reactions were carried out in glass GC vials contained purified OleB (40 μg) and 10 μL of substrate in 500 μL, of 200 mM NaCl, 20 mM NaPO4 at pH 7.4. Reactions were incubated at room temperature overnight, followed by extraction with tert-butyl methylether (MTBE). The MTBE extract was transferred to a clean GC vial and analyzed by gas chromatography/mass spectrometry (GC/MS Agilent 7890a & 5975c with an Agilent J&W bd-ms1 column 30 m length, 0.25 mm diameter, 0.25 μm film).

[2] = target: ClpP protease of Mycobacterium tuberculosis (Mycobacterium tuberculosis, UniProt P9WPC3+P9WPC5); conditions: cited from earlier work
Sequence of ClpP protease of Mycobacterium tuberculosis (P9WPC5 whole entry): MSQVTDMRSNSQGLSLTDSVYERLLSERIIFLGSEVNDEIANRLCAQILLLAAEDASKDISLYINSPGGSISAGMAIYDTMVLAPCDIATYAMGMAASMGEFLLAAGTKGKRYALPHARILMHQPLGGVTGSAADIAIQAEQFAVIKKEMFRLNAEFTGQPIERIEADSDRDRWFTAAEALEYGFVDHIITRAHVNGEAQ
Sequence of ClpP protease of Mycobacterium tuberculosis (P9WPC3 whole entry): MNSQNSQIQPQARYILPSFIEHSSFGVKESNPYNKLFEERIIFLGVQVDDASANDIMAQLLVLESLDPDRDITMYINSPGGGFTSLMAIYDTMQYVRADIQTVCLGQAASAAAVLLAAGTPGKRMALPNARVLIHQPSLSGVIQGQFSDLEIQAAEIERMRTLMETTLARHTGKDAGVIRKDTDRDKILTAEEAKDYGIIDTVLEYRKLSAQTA

[3] = target: OleB (Xanthomonas campestris pv. campestris, UniProt Q8PDW8); assay: MALDI-TOF of acyl-enzyme intermediate with haloalkane; type: binding; conditions: wild type OleB
Sequence of OleB (Q8PDW8 whole entry): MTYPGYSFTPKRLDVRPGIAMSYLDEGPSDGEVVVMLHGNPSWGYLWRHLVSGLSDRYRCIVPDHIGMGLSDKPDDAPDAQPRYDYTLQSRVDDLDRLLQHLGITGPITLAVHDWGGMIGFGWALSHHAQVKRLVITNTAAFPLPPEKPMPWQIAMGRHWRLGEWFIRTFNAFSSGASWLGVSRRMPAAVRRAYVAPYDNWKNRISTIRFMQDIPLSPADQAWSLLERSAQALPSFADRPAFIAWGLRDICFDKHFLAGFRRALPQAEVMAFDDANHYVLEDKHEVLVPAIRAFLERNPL
Description: To identify an acyl-enzyme intermediate, Matrix Assisted Laser Desorption Ionization (MALDI) was carried out on wild type OleB and OleBD114A proteins that had been reacted with 7-(bromornethyl)pentadecane (TCI). These two substrates contain the reactive bromomethyl group in the middle of a long alkyl chain, thereby mimicking the β-lactone substrate of OleB. Reactions contained 500 μM substrate and 40 μg of OleB in 100 μL of buffer (20 mM NaCl, 5 mM NaPO4, pH 7.4). Reaction were prepared for MALDI using standard C4 ZipTip (Millipore) procedures and spotted on a plate with sinapinic acid. Samples were analyzed on a Bruker Autoflex Speed MALDI-TOF.

[4] = target: T1, pancreatic lipase (Homo sapiens, UniProt P16233); assay: Lipase inhibition by β-lactones in microtiter well plates; type: biochemical; conditions: FIGS. 13A-E
T1 sequence (P16233 17-465): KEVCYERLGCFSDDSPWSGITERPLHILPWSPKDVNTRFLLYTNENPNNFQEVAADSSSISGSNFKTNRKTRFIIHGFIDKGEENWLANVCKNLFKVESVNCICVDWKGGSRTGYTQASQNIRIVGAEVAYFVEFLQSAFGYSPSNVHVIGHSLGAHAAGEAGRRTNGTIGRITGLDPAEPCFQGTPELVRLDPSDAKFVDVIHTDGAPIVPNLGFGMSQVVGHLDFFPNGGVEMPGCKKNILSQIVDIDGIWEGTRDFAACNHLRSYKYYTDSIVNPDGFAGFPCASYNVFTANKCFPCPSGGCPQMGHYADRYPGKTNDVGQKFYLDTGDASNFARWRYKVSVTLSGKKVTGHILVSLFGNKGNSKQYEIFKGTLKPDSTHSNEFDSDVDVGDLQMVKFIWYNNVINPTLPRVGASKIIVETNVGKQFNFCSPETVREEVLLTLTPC
Description: Cis and trans-isomers of β-lactones were synthesized and tested separately. […] These reactions were conducted in microtiter well plates so the inhibition of the lipase can be measured in a high-throughput manner such that hundreds or thousands of β-lactones can be rapidly screened. In addition, fatty acyl-CoA substrates can be combined with OleADC and lipase and lipase inhibition can be detected. Moreover, lipase may be substituted with proteasomes, penicillin binding proteins, pathogenic bacteria, or cancer cells and inhibitory activity of one or a plurality of β-lactones detected.

[5] = target: X. campestris OleB (Xanthomonas campestris pv. campestris, UniProt Q8PDW8); assay: OleB reactions with β-lactone followed by 1H-NMR; type: biochemical; conditions: for β-lactone that underwent decarboxylation to cis-olefin: 1.0 mg OleB, overnight, room temperature, 1H-NMR
Sequence of X. campestris OleB (Q8PDW8 whole entry): as the sequence (Q8PDW8 whole entry) above

[6] = target: human pancreatic lipase (Homo sapiens, UniProt P16233); conditions: cited from earlier work
[7] = target: human 20S protease (Homo sapiens, UniProt P28072+P28074+Q99436); conditions: cited from earlier work

Sequence of Xc OleB (Q8PDW8 whole entry): as the sequence (Q8PDW8 whole entry) above

Compound: CCCCBr [1-bromobutane]
- dehalogenase activity towards haloalkane substrate [1]: No detectable activity

Compound: CCCCCCBr [1-bromohexane]
- dehalogenase activity towards haloalkane substrate [1]: No detectable activity

Compound: CCCCCl [1-chlorobutane]
- dehalogenase activity towards haloalkane substrate [1]: No detectable activity

Compound: CCCCCCCl [1-cholohexane]
- dehalogenase activity towards haloalkane substrate [1]: No detectable activity

Compound: CCCCI [1-iodobutane]
- dehalogenase activity towards haloalkane substrate [1]: No detectable activity

Compound: CCCCCCCCCCCI [1-iodoundecane]
- dehalogenase activity towards haloalkane substrate [1]: No detectable activity

Compound: CCCC1OC(=O)C1Cc1ccccc1 (stereo not shown) [3-benzyl, 4-propyl oxetanone]
- inhibition of ClpP protease [2]: inhibit the ClpP protease of Mycobacterium tuberculosis

Compound: CCCCCCCCC(CBr)CCCCCC (stereo not shown) [7-(bromomethyl)pentadecane]
- acyl-enzyme intermediate formation (mass shift) [3]: forms a stable acyl-enzyme intermediate
- dehalogenase activity towards haloalkane substrate [1]: No detectable activity

Compound: CCCCCCCCCCC[C@@H](C[C@@H]1OC(=O)[C@H]1CCCCCC)OC(=O)[C@H](CC(C)C)NC=O [Orlistat, tetrahydrolipstatin]
- lipase inhibitory activity [4]: inhibits pancreatic lipase at nanogram levels

Compound: CCCCCCCCCC1OC(=O)C1CCCCCCCC (stereo not drawn) [cis-β-lactone, 3-octyl-4-nonyl-2-oxetanone]
- β-lactone that underwent decarboxylation to cis-olefin [5]: 47%
- cis-β-lactone starting material converted to cis-olefin ([5]; 2 mg of OleB): 54%
- cis-β-lactone starting material converted to cis-olefin ([5]; 4 mg of OleB): 63%

Compound: CCCCC/C=C\C/C=C\C[C@@H](C[C@@H]1OC(=O)[C@H]1CCCCCC)OC(=O)[C@H](CC(C)C)NC=O [lipstatin]
- inhibition of human pancreatic lipase [6]: inhibiting human pancreatic lipase

Compound: CCCCCCCCCC1OC(=O)C1CCCCCCCC (stereo not drawn) [trans-β-lactone, 3-octyl-4-nonyl-2-oxetanone]
- β-lactone that underwent decarboxylation to cis-olefin [5]: 4%

Compound: salinosporamide
- inhibition of human 20S protease function [7]: inhibit human 20S protease function
